Test [1] has as its target T1, Polyunsaturated fatty acid 5-lipoxygenase (Homo sapiens, UniProt P09917).
T1 sequence (P09917 whole entry): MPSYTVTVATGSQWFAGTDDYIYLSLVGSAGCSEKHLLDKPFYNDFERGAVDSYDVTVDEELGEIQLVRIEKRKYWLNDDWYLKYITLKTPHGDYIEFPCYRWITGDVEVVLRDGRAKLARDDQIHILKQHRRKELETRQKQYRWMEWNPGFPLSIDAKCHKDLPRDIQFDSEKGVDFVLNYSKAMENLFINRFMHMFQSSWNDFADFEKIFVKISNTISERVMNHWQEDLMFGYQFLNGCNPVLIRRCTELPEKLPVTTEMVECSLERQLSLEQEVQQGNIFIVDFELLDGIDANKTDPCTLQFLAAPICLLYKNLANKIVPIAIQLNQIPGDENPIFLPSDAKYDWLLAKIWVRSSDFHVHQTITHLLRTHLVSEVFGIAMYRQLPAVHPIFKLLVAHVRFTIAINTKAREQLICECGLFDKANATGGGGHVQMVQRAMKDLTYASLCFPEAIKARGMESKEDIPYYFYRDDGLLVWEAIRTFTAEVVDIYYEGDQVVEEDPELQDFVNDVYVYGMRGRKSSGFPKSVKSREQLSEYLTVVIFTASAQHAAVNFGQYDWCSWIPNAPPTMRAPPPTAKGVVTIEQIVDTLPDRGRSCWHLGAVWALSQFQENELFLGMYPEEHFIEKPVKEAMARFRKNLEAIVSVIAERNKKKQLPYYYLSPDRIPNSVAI
In words: Inhibition of human recombinant 5-LOX expressed in insect cells assessed as decrease in production of 5-HPETE and 5-HETE using arachidonic acid as substrate preincubated for 5 mins followed by substrate addition measured after 20 mins in dark by ferric ion oxidation-xylenol orange method. The conditions noted are these: read-out: IC50.

For test [2], the target named is T2, Polyunsaturated fatty acid lipoxygenase ALOX15B (Homo sapiens, UniProt O15296).
T2 sequence (O15296 whole entry): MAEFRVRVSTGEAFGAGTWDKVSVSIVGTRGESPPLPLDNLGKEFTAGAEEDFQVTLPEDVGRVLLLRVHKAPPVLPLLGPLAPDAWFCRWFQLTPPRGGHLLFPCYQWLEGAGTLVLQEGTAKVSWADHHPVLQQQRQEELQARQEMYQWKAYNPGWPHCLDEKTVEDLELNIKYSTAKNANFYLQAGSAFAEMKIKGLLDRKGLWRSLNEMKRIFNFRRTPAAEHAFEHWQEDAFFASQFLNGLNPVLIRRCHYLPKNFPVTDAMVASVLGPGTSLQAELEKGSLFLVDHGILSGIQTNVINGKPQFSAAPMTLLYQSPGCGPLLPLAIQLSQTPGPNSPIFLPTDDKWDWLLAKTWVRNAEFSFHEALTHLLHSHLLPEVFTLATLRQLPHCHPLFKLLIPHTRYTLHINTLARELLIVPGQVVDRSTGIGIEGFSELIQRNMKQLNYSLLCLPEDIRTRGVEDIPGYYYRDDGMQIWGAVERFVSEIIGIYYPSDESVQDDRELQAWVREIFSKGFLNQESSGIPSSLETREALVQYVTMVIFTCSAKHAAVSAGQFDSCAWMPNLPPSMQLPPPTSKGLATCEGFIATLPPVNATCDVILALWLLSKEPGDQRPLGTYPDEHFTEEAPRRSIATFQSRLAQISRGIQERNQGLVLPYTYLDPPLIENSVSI
In words: Inhibition of human recombinant N-terminal His-tagged 15-LOX2 expressed in Escherichia coli using arachidonic acid as substrate preincubated for 5 mins followed by substrate addition measured after 20 mins in dark by ferric ion oxidation-xylenol orange assay.

For test [3], the target named is T3, Prostaglandin G/H synthase 2 (Homo sapiens, UniProt P35354).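 Also: recombinant enzyme produced in baculovirus-infected Sf21 cells, arachidonic acid substrate, PGE2 output quantified by LC-MS after 45 min, compounds preincubated 10 min beforehand, lower PGE2 means inhibition.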
T3 sequence (P35354 whole entry): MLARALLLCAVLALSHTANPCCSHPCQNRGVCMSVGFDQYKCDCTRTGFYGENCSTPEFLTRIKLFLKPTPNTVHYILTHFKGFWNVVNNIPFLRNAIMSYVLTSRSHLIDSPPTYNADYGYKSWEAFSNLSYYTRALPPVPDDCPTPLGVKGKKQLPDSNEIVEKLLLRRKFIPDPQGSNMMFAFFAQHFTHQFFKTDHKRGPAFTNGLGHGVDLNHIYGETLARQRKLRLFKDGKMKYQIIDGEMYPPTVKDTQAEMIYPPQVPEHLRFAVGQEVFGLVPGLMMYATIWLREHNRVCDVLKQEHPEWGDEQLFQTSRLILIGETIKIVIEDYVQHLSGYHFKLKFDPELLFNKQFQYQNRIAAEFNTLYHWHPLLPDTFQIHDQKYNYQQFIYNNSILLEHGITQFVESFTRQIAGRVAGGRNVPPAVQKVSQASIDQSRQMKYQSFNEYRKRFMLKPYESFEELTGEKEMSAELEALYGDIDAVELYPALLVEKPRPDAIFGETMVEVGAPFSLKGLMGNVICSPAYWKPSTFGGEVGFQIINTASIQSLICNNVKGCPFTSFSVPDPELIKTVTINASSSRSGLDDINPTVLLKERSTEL
In words: biochemical. The conditions noted are these: read-out: IC50. In kind it is cell-based, Sf21.
Description: Inhibition of human recombinant COX2 expressed in baculovirus infected sf21 cells assessed as decrease in PGE2 formation using arachidonic acid as substrate preincubated for 10 mins followed by substrate addition measured after 45 mins by LC-MS analysis

Test [4] concerns the target T4, Prostaglandin G/H synthase 1 (Ovis aries, UniProt P05979).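 Also: recombinant ovine COX1 enzyme, PGE2 formed from arachidonic acid quantified by LC-MS, 10 min inhibitor preincubation then 45 min reaction, inhibition seen as reduced PGE2.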
T4 sequence (P05979 whole entry): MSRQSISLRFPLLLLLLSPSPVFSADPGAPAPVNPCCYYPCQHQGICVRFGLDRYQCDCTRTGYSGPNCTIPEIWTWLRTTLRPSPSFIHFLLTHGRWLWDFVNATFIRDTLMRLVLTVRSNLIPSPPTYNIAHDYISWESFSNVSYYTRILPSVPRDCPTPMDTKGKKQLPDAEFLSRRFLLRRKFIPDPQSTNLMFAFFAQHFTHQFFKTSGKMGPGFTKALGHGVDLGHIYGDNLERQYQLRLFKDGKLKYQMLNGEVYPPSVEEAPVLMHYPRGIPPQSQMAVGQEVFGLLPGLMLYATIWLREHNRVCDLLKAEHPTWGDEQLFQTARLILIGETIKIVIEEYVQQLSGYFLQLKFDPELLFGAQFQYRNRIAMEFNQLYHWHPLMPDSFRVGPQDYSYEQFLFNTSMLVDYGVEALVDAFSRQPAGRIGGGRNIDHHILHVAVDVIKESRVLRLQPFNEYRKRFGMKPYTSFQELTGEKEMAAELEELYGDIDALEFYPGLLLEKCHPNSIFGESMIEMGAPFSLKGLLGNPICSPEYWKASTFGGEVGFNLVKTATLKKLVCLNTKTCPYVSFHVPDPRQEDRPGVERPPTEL
Description: Inhibition of ovine recombinant COX1 assessed as decrease in formation of PGE2 using arachidonic acid as substrate preincubated for 10 mins followed by substrate addition measured after 45 mins by LC-MS analysis

In test [5] the target is T5, Polyunsaturated fatty acid 5-lipoxygenase (Homo sapiens) (UniProt P09917).
T5 sequence (whole entry): T1 sequence (P09917 whole entry)
The experiment in a line: Inhibition of human recombinant 5-LOX expressed in insect cells assessed residual activity using arachidonic acid at 42 uM as substrate preincubated for 5 mins followed by substrate addition measured after 20 mins in dark by ferric ion oxidation-xylenol orange method relative to control.

For test [6], the target named is T6, Polyunsaturated fatty acid lipoxygenase ALOX15B (Homo sapiens) (UniProt O15296).
T6 sequence (whole entry): T2 sequence (O15296 whole entry)
The experiment in a line: Inhibition of human recombinant N-terminal His-tagged 15-LOX2 expressed in Escherichia coli assessed as residual activity at 42 uM using arachidonic acid as substrate preincubated for 5 mins followed by substrate addition measured after 20 mins in dark by ferric ion oxidation-xylenol orange assay relative to control.

As a reminder, the IC50 is the concentration that inhibits the measured activity by half. Regarding `CC1(C)CC[C@]2(C(=O)O)CC[C@]3(C)C(=CC[C@@H]4[C@@]5(C)C[C@H](O)[C@H](O)[C@@](C)(CO)[C@@H]5CC[C@]43C)[C@@H]2C1`, the IC50 was > 40 µM in test [1], “Not Active” in test [2], > 40 µM in test [3] and “Not Active” in test [4]. Further, the Activity in test [5] came out at 71.9%; in test [6], 100%.

As for `CC1(C)[C@@H](O)CC[C@]2(C)[C@H]3C(=O)C=C4[C@@H]5C[C@@](C)(CO)CC[C@]5(C)CC[C@@]4(C)[C@]3(C)CC[C@@H]12`, the IC50 in test [1] was 25.7 µM; in test [2], “Not Active”; in test [3], > 40 µM; in test [4], “Not Active”. Further, the results for the Activity in test [5] and in test [6] were 25.2% and 100%, respectively.

The record behind these values is ChEMBL document CHEMBL4414666, “Structure-Activity Relationships of Pentacyclic Triterpenoids as Inhibitors of Cyclooxygenase and Lipoxygenase Enzymes” (J Nat Prod, 2019).
